Assay type in all cases: in vivo, human
The nature of data set [1]: Rating of perceived exertion (RPE) during exercise. Particulars: for RPE (Borg 6-20 scale): 10 g/day, mean ± SD. The method, then: A high-intensity exercise protocol was designed as a double-blind, crossover study to assess the influence of D-Ribose adaptation to physical stress. Specifically, D-Ribose and a control (Dextrose) were administered on separate subjects at a dosage of ten grams per day (10 g/day). A variety of physiological parameters were measured in the subjects administered D-Ribose (DR) supplementation (i.e., the DR subjects) versus the subjects administered Dextrose (DEX) supplementation (i.e., the DEX subjects). To test D-ribose for adaptation, the twenty-six (26) adult subjects were further divided into two subgroups based on their fitness level (i.e., peak oxygen uptake (VO2 max) results. The first subgroup comprised subjects with higher VO2 max results (i.e., the “Fit Subgroup”) and the second subgroup comprised subjects with lower VO2 max results (i.e., the “Unfit Subgroup”). The Unfit Subgroup consisted of six (6) females and seven (7) males. The average age of the Unfit Subgroup was 27.7±3.4 years and the average peak VO2 of the Unfit Subgroup was 39.9±4.1 mL/kg/min. The Fit Subgroup consisted of four (4) females and nine (9) males. The average age of the Fit Subgroup was 27.6±3.5 year and the average peak VO2 of the Fit Subgroup was 52.2±4.3 mL/kg/min. The protocol of the double-blind crossover study involved an initial baseline assessment, followed by two separate day assessments after consuming either a DR or DEX supplement. Each exercise session entailed measurements of creatine kinase (CK), blood urea nitrogen (BUN), glucose, heart rate (HR), rate of perceived exertion (RPE), and power output (PO) measurements. […] The Likert scale (0-10 points) was used to subjectively assess quadriceps muscle soreness, overall fatigue, appetite, perceived performance, and sleep quality. These scales were completed prior to and following each exercise session.

A short description of data set [2]: Tolerability of supplementation in the exercise study. The following applies: 10 g/day; 26 subjects. The method, then:
A high-intensity exercise protocol was designed as a double-blind, crossover study to assess the influence of D-Ribose adaptation to physical stress. Specifically, D-Ribose and a control (Dextrose) were administered on separate subjects at a dosage of ten grams per day (10 g/day). A variety of physiological parameters were measured in the subjects administered D-Ribose (DR) supplementation (i.e., the DR subjects) versus the subjects administered Dextrose (DEX) supplementation (i.e., the DEX subjects).
The subjects consisted of twenty-six (26) healthy individual (10 females, 16 males). Each subject was randomly categorized as a DR subject or a DEX subject for the administration of supplementation. Furthermore, each subject was required to maintain his or her normal diet during the study, as well as performing his or her normal daily activities without performing any additional separate exercise sessions not part of the study protocol. […]

Data set [3] is described as follows: Blood urea nitrogen (BUN) around three days of high-intensity exercise. Particulars: for Change in BUN levels: Unfit Subgroup, p=0.88. The method, then:
A high-intensity exercise protocol was designed as a double-blind, crossover study to assess the influence of D-Ribose adaptation to physical stress. Specifically, D-Ribose and a control (Dextrose) were administered on separate subjects at a dosage of ten grams per day (10 g/day). A variety of physiological parameters were measured in the subjects administered D-Ribose (DR) supplementation (i.e., the DR subjects) versus the subjects administered Dextrose (DEX) supplementation (i.e., the DEX subjects). To test D-ribose for adaptation, the twenty-six (26) adult subjects were further divided into two subgroups based on their fitness level (i.e., peak oxygen uptake (VO2 max) results. The first subgroup comprised subjects with higher VO2 max results (i.e., the “Fit Subgroup”) and the second subgroup comprised subjects with lower VO2 max results (i.e., the “Unfit Subgroup”). The Unfit Subgroup consisted of six (6) females and seven (7) males. The average age of the Unfit Subgroup was 27.7±3.4 years and the average peak VO2 of the Unfit Subgroup was 39.9±4.1 mL/kg/min. The Fit Subgroup consisted of four (4) females and nine (9) males. The average age of the Fit Subgroup was 27.6±3.5 year and the average peak VO2 of the Fit Subgroup was 52.2±4.3 mL/kg/min. […] Physiologic parameters were measured and hydration was provided to the subjects during the exercise session. […] Blood glucose was measured at all of the above time points except at twenty-four (24) hours post-exercise. Creatine kinase and BUN levels were measured at the pre-exercise (−10 min.) point during the three (3) days of exercise and twenty-four (24) hours post-exercise following the third (last) exercise session. Heart rate was recorded using a Polar HR monitor. Blood glucose levels were measured using a Bayer glucose monitor. Blood lactate levels were measured by an AccuSport Lactate Analyzer. Creatine kinase and BUN were measured utilizing an Abaxis Piccolo analyzer. Power data from the time trial performance test was assessed with the Sports Medicine Industries (SMI) software package.

With `O=C[C@H](O)[C@H](O)[C@H](O)CO` [DR, D-Ribose], the RPE in data set [1] (Fit Subgroup) came out at 14±2; in data set [1] (Unfit Subgroup, p=0.003) it was 13±2. Moreover, the “RPE (Borg 6-20 scale)” value in data set [1] (Fit Subgroup) is reported as 13.6 ± 1.8; in data set [1] (Unfit Subgroup), 13.1 ± 1.6. In addition, in data set [2], the Tolerability of supplement result is on record as “without any subjective complaints or issues”. Besides, the “Change in BUN levels, DR versus DEX” value in data set [3] (Fit Subgroup) is “No differences”. The “Change in BUN levels” value in data set [3] is recorded as 0.93±2.66.

On to `O=C[C@H](O)[C@@H](O)[C@H](O)[C@H](O)CO` [DEX, Dextrose, reference compound], for which the RPE stood at 14±2 in data set [1] (Fit Subgroup) and 14±2 in data set [1] (Unfit Subgroup, p=0.003). Further, the figures for the “RPE (Borg 6-20 scale)” value in data set [1] (Fit Subgroup) and in data set [1] (Unfit Subgroup) were 13.9 ± 1.6 and 13.5 ± 1.5, respectively. Also, the “Average rate of perceived exertion, DEX subjects versus DR subjects (FIG. 1)” value in data set [1] (all measured points of the exercise sessions) is listed as “greater”. Moreover, in data set [2], the Tolerability of supplement result is reported as “without any subjective complaints or issues”. Besides, the “Change in BUN levels” value in data set [3] is listed as 1.08±2.56.

(Values after patent US20210227854A1, “USE OF D-RIBOSE TO ENHANCE ADAPTATION TO PHYSICAL STRESS” (Bioenergy Life Science, Inc., priority 2014, published 2021).)
